Assay results taken from US20090238808A1, “Process for the identification of novel enzyme interacting compounds” (priority 2005, published 2009).

Experiments:
[1] = molecular target: T1, p38a (Mus musculus, UniProt P47811); assay: Kinobeads elution with test compound, mouse brain lysate, MS; format: binding; conditions: kinase released from kinobeads by specific elution
T1 construct: from tissue; host or cells: mouse brain
Procedure: (§1) This example illustrates competitive elution of proteins bound to kinobeads with non-modified test compounds (see particularly the fourth aspect of the invention). The kinobeads (as described in example 1) were contacted with mouse brains lysate, bound proteins were eluted with various test compounds and the released proteins were analysed by mass spectrometry.
(§2) The kinobeads were contacted with mouse brain lysate under conditions that allow the binding of the proteins in the lysate to the ligands. The binding conditions were close to physiological by choosing suitable buffer conditions preserving the function of the proteins. After removing non-captured proteins through a gentle washing procedure the bound proteins were contacted with a test compound for protein elution.
(§3) Various test compounds (see section 2.7) were used to release bound proteins following these steps:
(§4) 1. Resuspend beads with bound proteins (section 2.4) in 1×DP buffer/0.2% NP-40 as 1:3 slurry (volume/volume). 2. Transfer 20 μl the 1:3 slurry into MoBiTech columns (equivalent to 5 μl of beads). 3. Place the column into an Eppendorf tube and centrifuge it for 15 seconds at 800 rpm at 4° C. Close columns with lower lid. 4. Add 10 μl elution buffer containing 1.0 mM of the test compound (concentration ranges of 0.1 to 1.0 mM are suitable). As a control use elution buffer containing 2% DMSO or 2% DMF dependent on the solvent used for dissolving the test compound. Close column with upper lid. 5. Incubate for 30 minutes at 4° C. in an Eppendorf incubator at 700 rpm. 6. Open column (first top, then bottom), put column back into siliconized tube (SafeSeal Microcentrifuge Tubes, cat. no 11270, Sorenson BioScience, Inc.). To harvest the eluate centrifuge 2 minutes at 2.000 rpm in table top centrifuge at room temperature. The typical volume of the eluate is approximately 15 μl. 7. Add 5 μl 4× NuPAGE SDS Sample Buffer (Invitrogen, NP0007) containing 100 mM DTT (DTT has to be added just prior to use). 8. Incubate for 30 minutes at 50° C. 9. Add 1/10 volume of 200 mg/ml iodoacetamide, incubate for 30 min at room temperature, protect from light. This reaction leads to the alkylation of cysteines for mass spectrometry. 10. Before loading samples onto the gel, centrifuge samples for 5 minutes at 15.000 rpm in order to remove precipitates. 11. For protein separation apply 10 μl sample to NuPAGE 4-12% Bis-Tris gel (Invitrogen, NPO335). 2.6 Preparation of Stock Solutions used in this Protocol
(§5) Search criteria varied depending on which mass spectrometer was used for the analysis.

[2] = molecular target: T2, GSK3Aps (Mus musculus, UniProt Q2NL51); assay: as above; format: binding; conditions: kinase released from kinobeads by specific elution
T2 construct: from tissue; host or cells: mouse brain
Procedure: as §1, §2, §3, §4, §5

[3] = molecular target: T3, p38b (Mus musculus, UniProt Q9WUI1); assay: as above; format: binding; conditions: kinase released from kinobeads by specific elution
T3 construct: from tissue; host or cells: mouse brain
Procedure: as §1, §2, §3, §4, §5

[4] = molecular target: CDK5 (Mus musculus, UniProt P49615); assay: as above; format: binding; conditions: kinase released from kinobeads by specific elution
Procedure: as §1, §2, §3, §4, §5

[5] = molecular target: T4, JNK3 (Mus musculus, UniProt Q61831); assay: as above; format: binding; conditions: kinase released from kinobeads by specific elution
T4 construct: from tissue; host or cells: mouse brain
Procedure: as §1, §2, §3, §4, §5

[6] = molecular target: T5, JNK1 (Mus musculus, UniProt Q91Y86); assay: as above; format: binding; conditions: kinase released from kinobeads by specific elution
T5 construct: from tissue; host or cells: mouse brain
Procedure: as §1, §2, §3, §4, §5

[7] = molecular target: AAK1 (Mus musculus, UniProt Q3UHJ0); assay: as above; format: binding; conditions: kinase released from kinobeads by specific elution
Procedure: as §1, §2, §3, §4, §5

[8] = molecular target: T6, Erk2 (Mus musculus, UniProt P63085); assay: as above; format: binding; conditions: kinase released from kinobeads by specific elution
T6 construct: […]; from tissue; host or cells: mouse brain
Procedure: as §1, §2, §3, §4, §5

[9] = molecular target: T7, JNK2 (Mus musculus, UniProt Q9WTU6); assay: as above; format: binding; conditions: kinase released from kinobeads by specific elution
T7 construct: from tissue; host or cells: mouse brain
Procedure: as §1, §2, §3, §4, §5

[10] = molecular target: T8, GSK3B (Mus musculus, UniProt Q9WV60); assay: as above; format: binding; conditions: kinase released from kinobeads by specific elution
T8 construct: from tissue; host or cells: mouse brain
Text: (§6) This example illustrates competitive elution of proteins bound to kinobeads with non-modified test compounds (see particularly the fourth aspect of the invention).
as §2, §3
as §4, with “Open column (first top, then bottom), put column back into siliconized tube (SafeSeal Microcentrifuge Tubes, cat. no 11270, Sorenson BioScience, Inc.).” left out, “For protein separation apply 10 μl sample to NuPAGE 4-12% Bis-Tris gel (Invitrogen, NPO335).” left out
as §5

[11] = molecular target: T9, MAP2K1 (Mus musculus, UniProt P31938); assay: as above; format: binding; conditions: kinase released from kinobeads by specific elution
T9 construct: from tissue; host or cells: mouse brain
Procedure: as §1, §2, §3, §4, §5

[12] = molecular target: CaMK2b (Mus musculus, UniProt P28652); assay: as above; format: binding; conditions: kinase released from kinobeads by specific elution
Procedure: as §1, §2, §3, §4, §5

[13] = molecular target: T10, MARK2 (Mus musculus, UniProt Q05512); assay: as above; format: binding; conditions: kinase released from kinobeads by specific elution
T10 construct: from tissue; host or cells: mouse brain
Procedure: as §1, §2, §3, §4, §5

[14] = molecular target: CRIK (Mus musculus, UniProt P49025); assay: as above; format: binding; conditions: kinase released from kinobeads by specific elution
Procedure: as §1, §2, §3, §4, §5

[15] = molecular target: T11, PKCg (Mus musculus, UniProt P63318); assay: as above; format: binding; conditions: kinase released from kinobeads by specific elution
T11 construct: from tissue; host or cells: mouse brain
Procedure: as §1, §2, §3, §4, §5

[16] = molecular target: CaMKK2 (Mus musculus, UniProt Q8C078); assay: as above; format: binding; conditions: kinase released from kinobeads by specific elution
Procedure: as §1, §2, §3, §4, §5

[17] = molecular target: T12, CaMK2d (Mus musculus, UniProt Q6PHZ2); assay: as above; format: binding; conditions: kinase released from kinobeads by specific elution
T12 construct: […]; from tissue; host or cells: mouse brain
Procedure: as §1, §2, §3, §4, §5

[18] = molecular target: T13, PYK2 (Mus musculus, UniProt Q9QVP9); assay: as above; format: binding; conditions: kinase released from kinobeads by specific elution
T13 construct: from tissue; host or cells: mouse brain
Procedure: as §1, §2, §3, §4, §5

[19] = molecular target: T14, Erk1ps5 (Mus musculus, UniProt Q63844); assay: as above; format: binding; conditions: kinase released from kinobeads by specific elution
T14 construct: […]; from tissue; host or cells: mouse brain
Procedure: as §1, §2, §3, §4, §5

[20] = molecular target: T15, CaMK2a (Mus musculus, UniProt P11798); assay: as above; format: binding; conditions: kinase released from kinobeads by specific elution
T15 construct: […]; from tissue; host or cells: mouse brain
Procedure: as §1, §2, §3, §4, §5

[21] = molecular target: FER (Mus musculus, UniProt P70451); assay: as above; format: binding; conditions: kinase released from kinobeads by specific elution
Procedure: as §1, §2, §3, §4, §5

[22] = system: T16, RSK1 (Mus musculus); assay: as above; format: binding; conditions: kinase released from kinobeads by specific elution
T16 construct: from tissue; host or cells: mouse brain
Procedure: as §1, §2, §3, §4, §5

[23] = molecular target: CaMK2g (Mus musculus, UniProt Q923T9); assay: as above; format: binding; conditions: kinase released from kinobeads by specific elution
Text: as §6, §2, §3
as §4, with “Open column (first top, then bottom), put column back into siliconized tube (SafeSeal Microcentrifuge Tubes, cat. no 11270, Sorenson BioScience, Inc.).” left out, “For protein separation apply 10 μl sample to NuPAGE 4-12% Bis-Tris gel (Invitrogen, NPO335).” left out
as §5

[24] = molecular target: GCK (Homo sapiens, UniProt Q12851); assay: Biochemical kinase activity assay (Invitrogen SelectScreen); conditions: read-out: % inhibition, GCK
[25] = molecular target: FER (Homo sapiens, UniProt P16591); assay: as above; conditions: read-out: % inhibition, FER
[26] = molecular target: T17, MER (Homo sapiens, UniProt Q12866); assay: as above; conditions: read-out: % inhibition, MER
T17 sequence (Q12866 21-999): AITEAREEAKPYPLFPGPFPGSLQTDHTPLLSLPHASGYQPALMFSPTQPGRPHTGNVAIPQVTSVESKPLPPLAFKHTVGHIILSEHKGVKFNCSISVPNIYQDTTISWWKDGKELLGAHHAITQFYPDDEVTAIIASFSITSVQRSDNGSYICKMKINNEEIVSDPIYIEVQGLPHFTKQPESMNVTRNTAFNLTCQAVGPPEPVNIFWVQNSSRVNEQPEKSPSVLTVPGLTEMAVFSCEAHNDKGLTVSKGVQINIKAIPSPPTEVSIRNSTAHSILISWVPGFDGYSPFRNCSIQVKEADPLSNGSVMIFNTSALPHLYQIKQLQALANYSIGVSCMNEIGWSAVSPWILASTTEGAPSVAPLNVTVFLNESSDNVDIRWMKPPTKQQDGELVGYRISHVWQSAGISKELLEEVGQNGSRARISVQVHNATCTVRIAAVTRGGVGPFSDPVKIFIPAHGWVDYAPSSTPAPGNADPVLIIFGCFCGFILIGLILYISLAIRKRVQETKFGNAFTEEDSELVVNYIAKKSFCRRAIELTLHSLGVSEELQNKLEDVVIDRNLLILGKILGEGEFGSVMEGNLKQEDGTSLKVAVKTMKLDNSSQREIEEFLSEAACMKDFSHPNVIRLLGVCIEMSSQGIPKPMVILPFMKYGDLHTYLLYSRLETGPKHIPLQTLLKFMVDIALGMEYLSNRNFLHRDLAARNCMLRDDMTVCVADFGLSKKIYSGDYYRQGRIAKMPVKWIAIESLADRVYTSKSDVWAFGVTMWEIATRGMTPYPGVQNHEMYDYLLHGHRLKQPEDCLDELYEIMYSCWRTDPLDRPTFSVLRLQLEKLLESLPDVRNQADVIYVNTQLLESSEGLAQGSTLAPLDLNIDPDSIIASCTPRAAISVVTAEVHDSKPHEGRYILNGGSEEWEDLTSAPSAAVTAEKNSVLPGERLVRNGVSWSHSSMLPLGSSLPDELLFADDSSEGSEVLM

T8 sequence (Q9WV60 whole entry): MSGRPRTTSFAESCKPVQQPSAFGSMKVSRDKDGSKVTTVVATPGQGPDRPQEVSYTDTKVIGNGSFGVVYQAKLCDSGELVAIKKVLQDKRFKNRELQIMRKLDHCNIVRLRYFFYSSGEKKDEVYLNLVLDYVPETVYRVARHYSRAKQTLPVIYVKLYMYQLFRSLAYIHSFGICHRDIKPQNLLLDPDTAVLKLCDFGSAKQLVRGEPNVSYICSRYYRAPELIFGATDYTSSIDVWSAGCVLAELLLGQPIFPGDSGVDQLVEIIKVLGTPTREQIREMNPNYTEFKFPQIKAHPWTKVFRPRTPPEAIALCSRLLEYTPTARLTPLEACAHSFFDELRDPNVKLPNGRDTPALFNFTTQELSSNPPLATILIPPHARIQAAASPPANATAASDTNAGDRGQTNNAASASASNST
T6 sequence (P63085 whole entry): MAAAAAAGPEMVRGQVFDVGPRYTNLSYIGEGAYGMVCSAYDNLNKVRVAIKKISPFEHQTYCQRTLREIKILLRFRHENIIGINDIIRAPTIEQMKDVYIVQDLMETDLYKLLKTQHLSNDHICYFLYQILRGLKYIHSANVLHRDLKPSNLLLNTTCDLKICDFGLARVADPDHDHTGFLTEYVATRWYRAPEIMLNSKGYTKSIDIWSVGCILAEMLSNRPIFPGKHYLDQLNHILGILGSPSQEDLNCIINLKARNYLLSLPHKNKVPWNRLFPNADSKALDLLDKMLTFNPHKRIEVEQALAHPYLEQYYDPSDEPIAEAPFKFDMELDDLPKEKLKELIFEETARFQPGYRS
T2 sequence (Q2NL51 2-490 limits assumed): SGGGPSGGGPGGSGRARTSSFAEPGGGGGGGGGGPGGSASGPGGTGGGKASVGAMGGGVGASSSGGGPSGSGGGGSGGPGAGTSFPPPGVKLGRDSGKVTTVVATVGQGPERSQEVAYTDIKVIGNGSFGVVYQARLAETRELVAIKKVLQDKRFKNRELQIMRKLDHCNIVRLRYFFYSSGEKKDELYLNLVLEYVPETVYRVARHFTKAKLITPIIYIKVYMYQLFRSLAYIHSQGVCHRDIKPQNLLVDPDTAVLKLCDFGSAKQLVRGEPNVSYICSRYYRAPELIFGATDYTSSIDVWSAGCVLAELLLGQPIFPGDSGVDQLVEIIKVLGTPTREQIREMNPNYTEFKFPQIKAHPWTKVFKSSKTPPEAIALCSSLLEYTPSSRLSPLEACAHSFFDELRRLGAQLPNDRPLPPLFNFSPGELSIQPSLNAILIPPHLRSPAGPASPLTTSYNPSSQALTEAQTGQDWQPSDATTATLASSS
AAK1, sequence (Q3UHJ0 whole entry): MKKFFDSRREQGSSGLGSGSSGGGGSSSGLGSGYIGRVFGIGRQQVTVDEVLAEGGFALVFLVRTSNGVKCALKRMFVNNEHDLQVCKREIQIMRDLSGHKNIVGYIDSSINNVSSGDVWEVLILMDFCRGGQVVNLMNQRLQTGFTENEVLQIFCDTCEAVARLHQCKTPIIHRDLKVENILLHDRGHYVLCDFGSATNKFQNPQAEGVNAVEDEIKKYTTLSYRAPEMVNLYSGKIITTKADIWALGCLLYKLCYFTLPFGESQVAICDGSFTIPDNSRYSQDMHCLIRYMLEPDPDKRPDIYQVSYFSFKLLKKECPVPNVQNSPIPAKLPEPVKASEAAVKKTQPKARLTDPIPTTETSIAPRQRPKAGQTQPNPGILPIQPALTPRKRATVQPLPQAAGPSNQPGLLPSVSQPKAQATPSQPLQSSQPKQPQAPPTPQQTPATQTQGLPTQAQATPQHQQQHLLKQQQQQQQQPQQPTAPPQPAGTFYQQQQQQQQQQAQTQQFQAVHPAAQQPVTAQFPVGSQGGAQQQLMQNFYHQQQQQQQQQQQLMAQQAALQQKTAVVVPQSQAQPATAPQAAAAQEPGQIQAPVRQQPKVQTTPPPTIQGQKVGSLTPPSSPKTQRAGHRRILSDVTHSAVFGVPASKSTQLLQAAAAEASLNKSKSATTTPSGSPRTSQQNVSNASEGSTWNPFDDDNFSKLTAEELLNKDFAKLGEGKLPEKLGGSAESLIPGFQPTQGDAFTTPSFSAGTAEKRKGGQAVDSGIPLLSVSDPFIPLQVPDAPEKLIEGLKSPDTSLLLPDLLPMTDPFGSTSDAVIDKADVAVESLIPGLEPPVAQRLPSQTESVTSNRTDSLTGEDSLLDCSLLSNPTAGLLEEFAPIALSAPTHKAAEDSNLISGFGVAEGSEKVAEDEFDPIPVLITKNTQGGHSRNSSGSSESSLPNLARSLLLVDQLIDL
CDK5, sequence (P49615 whole entry): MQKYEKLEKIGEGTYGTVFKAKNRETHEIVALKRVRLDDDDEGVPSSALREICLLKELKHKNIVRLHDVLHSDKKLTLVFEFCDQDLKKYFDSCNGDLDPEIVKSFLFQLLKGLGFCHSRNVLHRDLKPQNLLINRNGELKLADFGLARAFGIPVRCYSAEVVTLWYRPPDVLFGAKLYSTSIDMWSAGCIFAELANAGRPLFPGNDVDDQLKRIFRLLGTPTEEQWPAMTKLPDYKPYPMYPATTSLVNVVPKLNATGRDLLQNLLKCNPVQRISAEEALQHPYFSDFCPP
T7 sequence (Q9WTU6 whole entry): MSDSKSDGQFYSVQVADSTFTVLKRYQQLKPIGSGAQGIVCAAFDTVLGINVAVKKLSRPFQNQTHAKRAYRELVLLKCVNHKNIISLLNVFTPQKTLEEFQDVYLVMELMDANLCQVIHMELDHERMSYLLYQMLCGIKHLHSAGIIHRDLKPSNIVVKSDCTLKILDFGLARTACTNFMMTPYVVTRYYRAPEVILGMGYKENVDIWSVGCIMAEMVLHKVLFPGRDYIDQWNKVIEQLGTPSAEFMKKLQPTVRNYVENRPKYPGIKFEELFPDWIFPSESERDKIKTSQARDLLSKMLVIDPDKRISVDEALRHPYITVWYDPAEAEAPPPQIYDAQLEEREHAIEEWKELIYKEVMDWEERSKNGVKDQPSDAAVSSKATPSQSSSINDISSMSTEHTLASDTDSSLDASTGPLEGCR
T3 sequence (Q9WUI1 whole entry): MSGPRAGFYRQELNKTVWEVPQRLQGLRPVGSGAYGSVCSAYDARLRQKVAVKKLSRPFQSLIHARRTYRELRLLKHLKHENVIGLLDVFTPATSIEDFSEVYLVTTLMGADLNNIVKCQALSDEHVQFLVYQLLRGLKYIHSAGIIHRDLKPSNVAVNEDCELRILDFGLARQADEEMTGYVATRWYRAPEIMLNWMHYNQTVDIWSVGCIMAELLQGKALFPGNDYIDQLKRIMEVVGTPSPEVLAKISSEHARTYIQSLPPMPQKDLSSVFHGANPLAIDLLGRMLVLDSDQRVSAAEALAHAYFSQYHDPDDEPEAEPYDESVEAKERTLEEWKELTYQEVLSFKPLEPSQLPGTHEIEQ
CaMK2b, sequence (P28652 whole entry): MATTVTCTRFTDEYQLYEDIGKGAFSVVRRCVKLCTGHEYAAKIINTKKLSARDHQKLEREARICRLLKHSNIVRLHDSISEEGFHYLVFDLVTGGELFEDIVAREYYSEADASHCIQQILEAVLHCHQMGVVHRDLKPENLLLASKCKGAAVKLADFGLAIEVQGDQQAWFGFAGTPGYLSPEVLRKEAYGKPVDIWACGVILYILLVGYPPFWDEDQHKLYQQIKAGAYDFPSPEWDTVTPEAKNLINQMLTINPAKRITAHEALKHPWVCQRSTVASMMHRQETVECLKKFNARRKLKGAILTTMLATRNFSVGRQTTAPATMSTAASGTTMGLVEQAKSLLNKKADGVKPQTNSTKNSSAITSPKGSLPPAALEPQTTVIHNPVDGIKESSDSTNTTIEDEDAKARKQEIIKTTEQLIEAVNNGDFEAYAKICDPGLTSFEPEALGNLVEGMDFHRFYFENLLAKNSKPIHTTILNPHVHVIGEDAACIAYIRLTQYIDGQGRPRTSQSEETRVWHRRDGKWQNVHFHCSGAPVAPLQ
T12 sequence (Q6PHZ2 whole entry): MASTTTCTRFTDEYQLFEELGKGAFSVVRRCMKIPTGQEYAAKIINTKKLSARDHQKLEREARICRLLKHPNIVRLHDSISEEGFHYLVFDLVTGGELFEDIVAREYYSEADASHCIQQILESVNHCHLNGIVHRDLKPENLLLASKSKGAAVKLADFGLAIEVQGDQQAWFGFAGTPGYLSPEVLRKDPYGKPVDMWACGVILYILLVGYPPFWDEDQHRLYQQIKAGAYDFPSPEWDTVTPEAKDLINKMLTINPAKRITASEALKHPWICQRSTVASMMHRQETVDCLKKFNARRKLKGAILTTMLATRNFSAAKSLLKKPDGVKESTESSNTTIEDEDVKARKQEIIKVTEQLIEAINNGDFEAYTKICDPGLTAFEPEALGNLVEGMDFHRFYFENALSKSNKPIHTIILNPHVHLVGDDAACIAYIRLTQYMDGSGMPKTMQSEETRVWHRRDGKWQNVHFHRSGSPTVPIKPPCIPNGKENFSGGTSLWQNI
CaMKK2, sequence (Q8C078 whole entry): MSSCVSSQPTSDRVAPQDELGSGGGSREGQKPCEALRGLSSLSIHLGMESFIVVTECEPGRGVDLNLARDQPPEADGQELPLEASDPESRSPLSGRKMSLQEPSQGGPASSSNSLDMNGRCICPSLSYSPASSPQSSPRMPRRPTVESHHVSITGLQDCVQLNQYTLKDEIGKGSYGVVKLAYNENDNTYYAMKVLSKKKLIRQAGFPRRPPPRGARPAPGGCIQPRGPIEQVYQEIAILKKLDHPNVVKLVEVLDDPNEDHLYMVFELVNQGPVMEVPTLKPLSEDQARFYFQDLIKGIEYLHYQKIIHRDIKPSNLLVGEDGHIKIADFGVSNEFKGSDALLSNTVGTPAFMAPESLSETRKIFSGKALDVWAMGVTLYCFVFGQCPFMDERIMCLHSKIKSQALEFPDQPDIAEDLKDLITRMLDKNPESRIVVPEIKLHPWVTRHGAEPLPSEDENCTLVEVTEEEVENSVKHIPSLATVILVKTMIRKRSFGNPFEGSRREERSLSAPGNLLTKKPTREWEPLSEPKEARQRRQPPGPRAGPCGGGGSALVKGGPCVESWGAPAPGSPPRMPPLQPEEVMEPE

Oc1ccc(-c2nc(-c3ccc(F)cc3)c(-c3ccncc3)[nH]2)cc1 [CZC7098]
mass spectrometry score, p38a [1]: 295 | number of identified peptides, p38a [1]: 10 | mass spectrometry score, GSK3Aps [2]: 406 | number of identified peptides, GSK3Aps [2]: 8 | mass spectrometry score, p38b [3]: 80 | number of identified peptides, p38b [3]: 2 | mass spectrometry score, CDK5 [4]: 166 | number of identified peptides, CDK5 [4]: 4 | mass spectrometry score, JNK3 [5]: 542 | number of identified peptides, JNK3 [5]: 30 | mass spectrometry score, JNK1 [6]: 540 | number of identified peptides, JNK1 [6]: 19 | mass spectrometry score, AAK1 [7]: 198 | number of identified peptides, AAK1 [7]: 4 | mass spectrometry score, Erk2 [8]: 506 | number of identified peptides, Erk2 [8]: 20 | mass spectrometry score, JNK2 [9]: 170 | number of identified peptides, JNK2 [9]: 5 | mass spectrometry score, GSK3B [10]: 743 | number of identified peptides, GSK3B [10]: 34

NCCCn1cc(C2=C(c3c[nH]c4ccccc34)C(=O)NC2=O)c2ccccc21 [CZC1038, Bisindolylmaleimide III, reference compound]
mass spectrometry score, GSK3Aps [2]: 1232 | number of identified peptides, GSK3Aps [2]: 60 | mass spectrometry score, MAP2K1 [11]: 208 | number of identified peptides, MAP2K1 [11]: 6 | mass spectrometry score, CaMK2b [12]: 834 | number of identified peptides, CaMK2b [12]: 52 | mass spectrometry score, CDK5 [4]: 831 | number of identified peptides, CDK5 [4]: 19 | mass spectrometry score, MARK2 [13]: 49 | number of identified peptides, MARK2 [13]: 1 | mass spectrometry score, CR1K [14]: 90 | number of identified peptides, CR1K [14]: 5 | mass spectrometry score, PKCg [15]: 107 | number of identified peptides, PKCg [15]: 2 | mass spectrometry score, AAK1 [7]: 562 | number of identified peptides, AAK1 [7]: 38 | mass spectrometry score, Erk2 [8]: 754 | number of identified peptides, Erk2 [8]: 50 | mass spectrometry score, CaMKK2 [16]: 314 | number of identified peptides, CaMKK2 [16]: 6 | mass spectrometry score, CaMK2d [17]: 702 | number of identified peptides, CaMK2d [17]: 17 | mass spectrometry score, PYK2 [18]: 291 | number of identified peptides, PYK2 [18]: 7 | mass spectrometry score, Erk1ps5 [19]: 418 | number of identified peptides, Erk1ps5 [19]: 14 | mass spectrometry score, JNK2 [9]: 287 | number of identified peptides, JNK2 [9]: 11 | mass spectrometry score, CaMK2a [20]: 911 | number of identified peptides, CaMK2a [20]: 53 | mass spectrometry score, FER [21]: 237 | number of identified peptides, FER [21]: 6 | mass spectrometry score, RSK1 [22]: 292 | number of identified peptides, RSK1 [22]: 7 | mass spectrometry score, GSK3B [10]: 1176 | number of identified peptides, GSK3B [10]: 54 | mass spectrometry score, CaMK2g [23]: 550 | number of identified peptides, CaMK2g [23]: 18

Cc1nc(Nc2ncc(C(=O)Nc3c(C)cccc3Cl)s2)cc(N2CCN(CCO)CC2)n1 [dasatinib]
inhibition at 5 µM [24]: 60% | inhibition at 5 µM [25]: 36% | inhibition at 5 µM [26]: 40%
